In paper PMC9129912, “Characterization of a New Multifunctional GH20 β-N-Acetylglucosaminidase From Chitinibacter sp. GC72 and Its Application in Converting Chitin Into N-Acetyl Glucosamine” (Frontiers in Microbiology, 2022):

Test system: T1, NAGaseA
T1 construct: whole ORF, 844 residues (2535 bp), pET-28a(+) NdeI/XhoI, His6-tag kept, E. coli BL21(DE3), Ni-NTA purified, ~92 kDa (92,379 Da with His6-tag); cloning primers encode N-terminal MNKPAG and C-terminal SRVVAV
Assay: pNP release at […] nm, Lineweaver-Burk
Assay type: biochemical, Chitinibacter sp. GC72
Settings: 50 mM PBS pH 6.5, 40°C, 10 min, 50-2,500 μM substrate

- Km: 40 µM
SMILES: CC(=O)N[C@H]1[C@H](Oc2ccc([N+](=O)[O-])cc2)O[C@H](CO)[C@@H](O)[C@@H]1O [pNP-GlcNAc]
